Test results as given in patent publication US12674148B2, “Cell-based reporter assay for screening inhibitors of coronavirus RNA-dependent RNA polymerase activity” (priority 2020, dated 2026).
“Also recorded” adds a separate entry of the source.

Key:
MERS-CoV RdRp = MERS-CoV RdRp (Middle East respiratory syndrome-related coronavirus, UniProt K9N7C7); assay: cell-based; conditions: for inhibition at 100 µM: read-out: inhibition / reduction of MERS-CoV RdRp activity
HEK293T cells = assay: cytotoxicity / cell viability (CellTiter 96 AQueous One Solution)
[1] = HEK-293T, read-out: MERS-CoV RdRp activity (%)

MERS-CoV RdRp, sequence (K9N7C7 4378-5310 limits assumed): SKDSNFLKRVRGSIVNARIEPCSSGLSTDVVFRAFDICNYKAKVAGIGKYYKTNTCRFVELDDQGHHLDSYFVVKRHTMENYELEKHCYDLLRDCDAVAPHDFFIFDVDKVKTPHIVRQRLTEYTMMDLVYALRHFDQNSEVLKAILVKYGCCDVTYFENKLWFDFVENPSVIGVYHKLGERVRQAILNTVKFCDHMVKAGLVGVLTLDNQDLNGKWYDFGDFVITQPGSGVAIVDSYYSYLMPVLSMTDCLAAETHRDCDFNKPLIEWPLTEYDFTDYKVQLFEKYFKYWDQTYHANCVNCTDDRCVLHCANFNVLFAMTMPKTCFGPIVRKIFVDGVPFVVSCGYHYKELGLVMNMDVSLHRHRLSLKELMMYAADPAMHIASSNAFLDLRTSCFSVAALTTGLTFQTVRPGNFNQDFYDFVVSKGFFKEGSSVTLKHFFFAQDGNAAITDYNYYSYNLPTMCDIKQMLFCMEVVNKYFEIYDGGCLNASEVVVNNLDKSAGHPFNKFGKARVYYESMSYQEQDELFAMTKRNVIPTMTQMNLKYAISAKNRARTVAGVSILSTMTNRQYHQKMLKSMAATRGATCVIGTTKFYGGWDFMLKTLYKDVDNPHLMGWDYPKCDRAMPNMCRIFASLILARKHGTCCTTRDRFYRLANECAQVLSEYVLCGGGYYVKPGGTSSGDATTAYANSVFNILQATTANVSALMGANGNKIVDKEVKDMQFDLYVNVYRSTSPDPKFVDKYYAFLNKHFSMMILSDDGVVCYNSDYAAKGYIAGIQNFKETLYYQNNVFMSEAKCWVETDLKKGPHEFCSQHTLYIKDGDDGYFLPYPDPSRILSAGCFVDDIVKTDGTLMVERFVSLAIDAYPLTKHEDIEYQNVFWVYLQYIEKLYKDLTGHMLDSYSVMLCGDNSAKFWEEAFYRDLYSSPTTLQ

Row | SMILES | effect on MERS-CoV RdRp activity (in words) (MERS-CoV RdRp) | activity at 100 µM (MERS-CoV RdRp; [1]) [%] | inhibition at 100 µM (MERS-CoV RdRp; HEK-293T) [%] | other results
1 | CC(C)[C@H](N)C(=O)OCCOCn1cnc2c(=O)[nH]c(N)nc21 [valacyclovir] | did not reduce; also recorded: no significant effect | 90.2 ± 3.2 | – | –
2 | Cc1cn([C@H]2C[C@H](N=[N+]=[N-])[C@@H](CO)O2)c(=O)[nH]c1=O [zidovudine] | did not reduce; also recorded: no significant effect | 111 ± 3.7 | – | –
3 | NC(=O)c1nc(F)c[nH]c1=O [favipiravir] | no significant effect | 85.8 ± 2.4 | ~10 | –
4 | NC(=O)c1ncn([C@@H]2O[C@H](CO)[C@@H](O)[C@H]2O)n1 [ribavirin] | no significant effect | 60.3 ± 2.9 | ~40 | –
5 | Nc1ncnc2c1ncn2[C@@H]1O[C@H](CO)[C@@H](O)[C@@H]1O [vidarabine] | did not reduce; also recorded: did not affect the NLuc/FLuc ratio or MERS-CoV RdRp activity; also recorded: no significant effect | 89.9 ± 2.9 | – | cytotoxicity (HEK293T cells; concentration not stated (tested up to 100 μM)): did not show cytotoxicity; FLuc activity (internal control) (MERS-CoV RdRp): reduced in a concentration-dependent manner; NLuc activity (MERS-CoV RdRp): reduced in a concentration-dependent manner
6 | CC(C)OC(=O)[C@H](C)N[P@](=O)(OC[C@H]1O[C@@H](n2ccc(=O)[nH]c2=O)[C@](C)(F)[C@@H]1O)Oc1ccccc1 [sofosbuvir] | no significant effect | 62.4 ± 5.3 | ~40 | –
7 | Nc1ccn([C@@H]2CS[C@H](CO)O2)c(=O)n1 [lamivudine] | – | 98.3 ± 1.2 | – | –
8 | CCC(CC)COC(=O)[C@H](C)N[P@](=O)(OC[C@H]1O[C@@](C#N)(c2ccc3c(N)ncnn23)[C@H](O)[C@@H]1O)Oc1ccccc1 [remdesivir] | – | – | – | cytotoxicity (HEK293T cells; HEK293T cells, 12 μM): no cytotoxicity was observed; IC50 (MERS-CoV RdRp): 5.028 ± 0.035 µM; activity at 12 µM (MERS-CoV RdRp; [1]): 22.3 ± 0.3%
9 | COc1c(-c2ccc3cc(NS(C)(=O)=O)ccc3c2)cc(-n2ccc(=O)[nH]c2=O)cc1C(C)(C)C [dasabuvir] | significantly inhibited, but not completely inhibited | – | – | cytotoxicity (HEK293T cells; HEK293T cells, 10 μM, 18 hours): no cytotoxicity was observed; concentration at which cytotoxicity was reduced by half (HEK293T cells; HEK293T cells, 18 hours): 27.143 µM; cytotoxicity (HEK293T cells; HEK293T cells, concentration exceeding 10 μM, 18 hours): cytotoxicity was observed; IC50 (MERS-CoV RdRp): 11.6 µM; reduction of MERS-CoV RdRp activity (MERS-CoV RdRp): about 50%; activity at 10 µM (MERS-CoV RdRp; [1]): 51.5 ± 4.2%
